Reference: PubChem BioAssay AID1963875 (Molecular Pharmacology Branch, DTP, NCI, 2024)

Test system: KRAS-mutant PDC complex spheroid viability
Experiment: Anticancer human tumor 186277-243-T-J2-PDC patient-derived colon adenocarcinoma cell line growth inhibition [KRAS2]
Details: for viability, T/C: stronger effect = lower value
Source text: Multicellular complex tumor spheroid response to RAS pathway inhibitors in combination with a targeted agents in patient-derived cell lines with oncogenic KRAS variants from multiple cancer types
A high-throughput screen of multi-cell type tumor spheroids was designed to identify active combinations of targeted small molecules and KRAS pathway inhibitors. Complex spheroids include a stromal component modeled by human endothelial cells (HUVEC) and fibroblasts modeled by human mesenchymal stem cells (MSCs). The concentration ranges selected for each drug and investigational agent were based upon clinically achievable concentrations if the clinical Cmax of the agent was known.
Compounds. The drugs and investigational agents: BI-3406 (NSC825286), BAY-293 (NSC824723), batoprotafib (TNO155; NSC825523), sotorasib (AMG 510; NSC818433), MRTX1257 (NSC819558), elimusertib (BAY 1895344; NSC800525), molibresib (GSK525762; NSC774829), temuterkib (LY3214996; NSC803410), venetoclax (NSC766270), alisertib (NSC759677), olaparib (NSC753686), talazoparib (NSC767125), erdafitinib (NSC781556), ipatasertib (NSC767898), cabozantinib (NSC761068), nintedanib (NSC756659), abemaciclib (NSC768073), docetaxel (NSC628503), trametinib (NSC758246), and sapanisertib (NSC764658) were obtained from the National Cancer Institute (NCI) Developmental Therapeutics Program Chemical Repository. The FDA-approved anticancer drug set is available from the Developmental Therapeutics Program. […] The stock solutions were prepared in dimethyl sulfoxide (DMSO, Sigma-Aldrich, St. Louis, MO, cat. D2650) at 800-fold the tested concentration and stored at -70 degrees C prior to their use. All drugs and investigational agents were tested over a range starting from a high concentration at or near the clinical Cmax and decreasing in half-log increments. If the clinical Cmax for an agent had not been determined, the highest concentration tested was 10 microM.
Cell Culture. All cells were maintained in an incubator at 37 degrees C and 5% CO2 with 95% humidity. The PDC lines were cultured according to standard operating procedures established by the NCI PDMR (https://pdmr.cancer.gov/sops/default.htm). Briefly, all PDCs were thawed and cultured in Matrigel-coated flasks prepared with a working solution of 1X Ham's F-12 nutrient mix, without supplementation (Invitrogen, Waltham, MA, cat. 11765054), 100 U/mL penicillin-streptomycin (Invitrogen, cat. 15140122), and 2.5% Matrigel (Corning Inc., Corning, NY, cat. 354248) for the first three passages. All PDCs were cultured in complete DMEM/F-12 media containing advanced DMEM/F-12 (Invitrogen, cat. 12634028), 4.9% defined fetal bovine serum, heat inactivated (HyClone Laboratories Inc., Logan, UT, cat. SH30070.03HI), 389 ng/mL hydrocortisone (Sigma-Aldrich, cat. H4001), 9.7 ng/mL human EGF recombinant protein (Invitrogen, cat. PHG0313), 23.4 microg/mL adenine (Sigma-Aldrich, cat. A2786), 97.3 U/mL penicillin-streptomycin (Invitrogen, cat. 15140122), 1.9 mM L-glutamine (Invitrogen, cat. 25030081), and 9.7 microM Y-27632 dihydrochloride (Tocris Bioscience, Bristol, United Kingdom, cat. 1254). The PDCs were cultured in complete DMEM/F12 media without 9.7 microM Y-27632 dihydrochloride for at least two passages prior to the screen. The established cell line HOP-62 was cultured in RPMI 1640 medium, HEPES (Invitrogen, cat. 22400105) with 10% defined fetal bovine serum (HyClone Laboratories Inc., cat. SH30070.03) and 2 mM L-glutamine (Invitrogen, cat. 25030081). The pooled donor HUVEC were cultured in endothelial cell growth medium 2 (PromoCell, Heidelberg, Germany, cat. C-22011) and the hMSC were cultured in mesenchymal stem cell growth medium 2 (PromoCell, cat. C-28009). For all experiments, HUVEC and hMSC were used at passages </=5, while the malignant cell lines were used at passages </=15. […]

[1] = curve of first compound, second compound 0.1 µM
[2] = curve of first compound, second compound 0.316 µM
[3] = curve of first compound, second compound 1 µM
[4] = curve of first compound, second compound 3.16 µM
[5] = curve of first compound, second compound 10 µM
[6] = second compound 0.1 µM, first compound 0.0316 µM
[7] = second compound 0.1 µM, first compound 0.1 µM
[8] = second compound 0.316 µM, first compound 0.0316 µM
[9] = second compound 0.316 µM, first compound 0.1 µM
[10] = second compound 1 µM, first compound 0.0316 µM
[11] = second compound 1 µM, first compound 0.1 µM
[12] = second compound 3.16 µM, first compound 0.0316 µM
[13] = second compound 3.16 µM, first compound 0.1 µM
[14] = second compound 10 µM, first compound 0.0316 µM
[15] = second compound 10 µM, first compound 0.1 µM
[16] = second compound 0.1 µM, first compound 0.316 µM
[17] = second compound 0.1 µM, first compound 1 µM
[18] = second compound 0.1 µM, first compound 3.16 µM
[19] = second compound 0.1 µM, first compound 10 µM
[20] = second compound 0.316 µM, first compound 0.316 µM
[21] = second compound 0.316 µM, first compound 1 µM
[22] = second compound 0.316 µM, first compound 3.16 µM
[23] = second compound 0.316 µM, first compound 10 µM
[24] = second compound 1 µM, first compound 0.316 µM
[25] = second compound 1 µM, first compound 1 µM
[26] = second compound 1 µM, first compound 3.16 µM
[27] = second compound 1 µM, first compound 10 µM
[28] = second compound 3.16 µM, first compound 0.316 µM
[29] = second compound 3.16 µM, first compound 1 µM
[30] = second compound 3.16 µM, first compound 3.16 µM
[31] = second compound 3.16 µM, first compound 10 µM
[32] = second compound 10 µM, first compound 0.316 µM
[33] = second compound 10 µM, first compound 1 µM
[34] = second compound 10 µM, first compound 3.16 µM
[35] = second compound 10 µM, first compound 10 µM
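Wherever viability, T/C is given: viability read after seven days of compound exposure; 100% = DMSO vehicle-treated spheroids so lower means less viable.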

Row | Compound | IC50 [1] [nM] | IC50 [2] [nM] | IC50 [3] [nM] | IC50 [4] [nM] | IC50 [5] [nM] | viability, T/C [6] [%] | viability, T/C [7] [%] | viability, T/C [8] [%] | viability, T/C [9] [%] | viability, T/C [10] [%] | viability, T/C [11] [%] | viability, T/C [12] [%] | viability, T/C [13] [%] | viability, T/C [14] [%] | viability, T/C [15] [%] | viability, T/C [16] [%] | viability, T/C [17] [%] | viability, T/C [18] [%] | viability, T/C [19] [%] | viability, T/C [20] [%] | further results
1 | Cn1ncnc1[C@H]1c2n[nH]c(=O)c3cc(F)cc(c23)N[C@@H]1c1ccc(F)cc1 + CNCc1ccccc1-c1csc(C(C)Nc2nc(C)nc3cc(OC)c(OC)cc23)c1 | > 100 | > 100 | > 100 | < 0.316 | < 0.316 | 83.8 | 68.9 | 76.4 | 68.7 | 70.4 | 59.5 | 14.5 | 10.9 | 0.13 | 0.21 |  |  |  |  |  | viability, T/C (second compound 0.1 µM, first compound 0.000316 µM): 113%; viability, T/C (second compound 0.1 µM, first compound 0.001 µM): 109%; viability, T/C (second compound 0.1 µM, first compound 0.00316 µM): 109%; viability, T/C (second compound 0.1 µM, first compound 0.01 µM): 101%; viability, T/C (second compound 0.316 µM, first compound 0.000316 µM): 117%; viability, T/C (second compound 0.316 µM, first compound 0.001 µM): 106%; viability, T/C (second compound 0.316 µM, first compound 0.00316 µM): 115%; viability, T/C (second compound 0.316 µM, first compound 0.01 µM): 89.3%; viability, T/C (second compound 1 µM, first compound 0.000316 µM): 112%; viability, T/C (second compound 1 µM, first compound 0.001 µM): 110%; viability, T/C (second compound 1 µM, first compound 0.00316 µM): 97.9%; viability, T/C (second compound 1 µM, first compound 0.01 µM): 86%; viability, T/C (second compound 3.16 µM, first compound 0.000316 µM): 25.5%; viability, T/C (second compound 3.16 µM, first compound 0.001 µM): 0.4%; viability, T/C (second compound 3.16 µM, first compound 0.00316 µM): 28.8%; viability, T/C (second compound 3.16 µM, first compound 0.01 µM): 12.7%; viability, T/C (second compound 10 µM, first compound 0.000316 µM): 0.14%; viability, T/C (second compound 10 µM, first compound 0.001 µM): 0.14%; viability, T/C (second compound 10 µM, first compound 0.00316 µM): 0.14%; viability, T/C (second compound 10 µM, first compound 0.01 µM): 0.13%
2 | COc1cc(Nc2ncc3c(n2)-c2ccc(Cl)cc2C(c2c(F)cccc2OC)=NC3)ccc1C(=O)O + C=CC(=O)N1CCN(c2nc(=O)n(-c3c(C)ccnc3C(C)C)c3nc(-c4c(O)cccc4F)c(F)cc23)C(C)C1 | < 31.6 | < 31.6 | < 31.6 | < 31.6 | < 31.6 | 25.1 |  | 28.5 | 29.5 | 23.2 | 23.8 | 29.2 | 30.8 | 20.7 | 29.2 | 22.8 | 34 | 50.2 | 50.6 | 32.6 | viability, T/C [21]: 38.1%; viability, T/C [22]: 46.8%; viability, T/C [23]: 49.2%; viability, T/C [24]: 32.7%; viability, T/C [25]: 38.5%; viability, T/C [26]: 50.1%; viability, T/C [27]: 46.7%; viability, T/C [28]: 32.8%; viability, T/C [29]: 36.9%; viability, T/C [30]: 43%; viability, T/C [31]: 35.7%; viability, T/C [32]: 21.1%; viability, T/C [33]: 27.9%; viability, T/C [34]: 27.7%; viability, T/C [35]: 20.7%
3 | Cn1nccc1Nc1nccc(-c2cc3c(s2)C(C)(C)N(CCN2CCOCC2)C3=O)n1 + CC1OCC2(CCN(c3cnc(Sc4ccnc(N)c4Cl)c(N)n3)CC2)C1N | 306 | 219 | 224 | 176 | 77.4 | 106 | 107 | 104 | 114 | 106 | 114 | 118 | 85.6 | 86.8 | 39.5 | 48.3 | 9.06 | 4.04 | 5.66 | 22.5 | viability, T/C [21]: 7.68%; viability, T/C [22]: 2.95%; viability, T/C [23]: 4.77%; viability, T/C [24]: 24.3%; viability, T/C [25]: 4.22%; viability, T/C [26]: 2.3%; viability, T/C [27]: 3.66%; viability, T/C [28]: 13%; viability, T/C [29]: 2.81%; viability, T/C [30]: 1.49%; viability, T/C [31]: 2.19%; viability, T/C [32]: 5.87%; viability, T/C [33]: 2.69%; viability, T/C [34]: 1.11%; viability, T/C [35]: 1.69%
4 | COc1cc2nc(C)nc(NC(C)c3cc(N)cc(C(F)(F)F)c3)c2cc1OC1CCOC1 (configuration not stated) |  |  |  |  |  |  |  |  |  |  |  |  |  |  |  |  |  |  |  |  | viability, T/C (compound 1 µM): 101% [middle of 17 runs]; IC50 (compound alone, run of 07/12/2021): > 10000 nM; IC50 (compound alone, run of 07/19/2021): > 10000 nM
5 | COC(=O)c1ccc2c(C(=Nc3ccc(N(C)C(=O)CN4CCN(C)CC4)cc3)c3ccccc3)c(O)[nH]c2c1 + CNCc1ccccc1-c1csc(C(C)Nc2nc(C)nc3cc(OC)c(OC)cc23)c1 | 1840 | 1140 | 727 | < 31.6 | < 31.6 | 97.4 | 94.1 | 101 | 102 | 104 | 109 | 25.5 | 20.5 | 0.13 | 0.12 | 120 | 92.6 | 12.3 | 6.55 | 105 | viability, T/C [21]: 56.5%; viability, T/C [22]: 0.86%; viability, T/C [23]: 1.8%; viability, T/C [24]: 101%; viability, T/C [25]: 30.5%; viability, T/C [26]: 0.19%; viability, T/C [27]: 0.16%; viability, T/C [28]: 0.12%; viability, T/C [29]: 0.06%; viability, T/C [30]: 0.03%; viability, T/C [31]: 0.1%; viability, T/C [32]: 0.1%; viability, T/C [33]: 0.08%; viability, T/C [34]: 0.09%; viability, T/C [35]: 0.14%
